Columns and labels:
Type in all cases: in vivo, BALb/c male mice
neutrophils in BAL fluid = assay: Number of neutrophils in BAL fluid, mouse model of respiratory damage by air pollutants; settings: oral, 11 days (KC3 1×10^9 CFU/mouse; positive control 3 mg per kg BW per day)
Description: (§1) BALb/c male mice (Orient Bio Inc., 8-week-old) were divided into groups of 6 mice, and for all groups except for the normal group, components of air pollutants, i.e., 10 mg/ml of coal combustible materials, 10 mg/ml of fly ash, and 5 mg/ml of diesel exhaust particle (DEP) were diluted so that a final concentration of Alum was 1%, and so that a final concentration of each component was 1.5 mg/ml for coal combustible material/fly ash and […] for DEP in a mixture. Then, on each of the 4th, 7th, and 10th days from the start of the experiment, 50 μl of the mixture was directly injected into the airway and nose of the experimental animals according to the Intra-Nazal-Trachea (INT) injection method described in the document (Lim et al., Free Radic Biol Med. 25(6), 635-644. (1998), Shin et al., Korean J. Medicinal Crop Sci 27(3), 218-231. (2019)).
(§2) For a positive control group (dexamethasone, Sigma D2915), lactic acid bacteria (Lactobacillus plantarum KC3, KC3) was diluted at a concentration of 1×10^9 CFU/mouse in a solution containing 0.5% sodium carboxymethyl cellulose (CMC, 419273, Sigma-Aldrich), and then orally administered at a dosage of 3 mg per kg of body weight (BW) per day (for 11 days). On the 12th day after the start of the experiment, an autopsy was performed on the mice, and bronchoalveolar lavage (BAL) fluid was collected. […]

[1] = test system: total number of cells in bronchoalveolar lavage (BAL) fluid; assay: Total number of cells in BAL fluid, mouse model of respiratory damage by air pollutants; settings: oral, 11 days (KC3 1×10^9 CFU/mouse; positive control 3 mg per kg BW per day), BAL fluid on 12th day
Description: as §1, §2

CXCL-1 = assay: Inflammation factors in BAL fluid (ELISA), mouse model of respiratory damage by air pollutants; settings: oral, 11 days (KC3 1×10^9 CFU/mouse; positive control 3 mg per kg BW per day)
Description: as §1
(§3) For a positive control group (dexamethasone, Sigma D2915), lactic acid bacteria (Lactobacillus plantarum KC3, KC3) was diluted at a concentration of 1×10^9 CFU/mouse in a solution containing 0.5% sodium carboxymethyl cellulose (CMC, 419273, Sigma-Aldrich), and then orally administered at a dosage of 3 mg per kg of body weight (BW) per day (for 11 days). On the 12th day after the start of the experiment, an autopsy was performed on the mice, and bronchoalveolar lavage (BAL) fluid was collected.
(§4) To confirm effects of the samples in Examples above on expression levels of inflammation factors in the BAL fluid, an experiment was carried out as follows by applying the method described in the document (Brandt E B et al., J. Allergy Clin. Immunol., 132(5):1194-1204, (2013)).
(§5) An evaluation test was performed using ELISA to measure the expression levels of inflammation factors, such as IL-17A, TNF-α MIP2, and CXCL-1, in the BAL fluid.
(§6) The experiment was carried out in the same manner as in Experimental Examples 4-2 and 4-3, except that […].
(§7) The expression levels of IL-17A, TNF-α MIP2, and CXCL-1 in the BAL fluid were measured using ELISA. IL-17A antibodies (M1700, R&D Systems, Minneapolis, USA), TNF-α antibodies (MTA00B, R&D Systems, Minneapolis, USA), MIP2 antibodies (MM200, R&D Systems, Minneapolis, USA), and CXCL-1 antibodies (MKC00B, R&D Systems, Minneapolis, USA) were diluted with a buffer solution and coated micro-wells, and then cultured at 4° C. for 16 hours. Each well was washed with a washing buffer solution three times, and 10-fold diluted […] was dispensed at 100 μl per well.
(§8) After being left at room temperature for one hour, the wells were washed twice. Then, 100 μl of Avidin-HRP-conjugated antibodies (DY007, R&D Systems, Minneapolis, USA) was treated thereon, and the wells were left again at room temperature for one hour, followed by washing again. A TMB substrate solution (DY007, R&D Systems, Minneapolis, USA) was dispensed at 100 μl per well, and the well plate was left in shadow for 30 minutes. Then, 50 μl of a stopping solution (DY007, R&D Systems, Minneapolis, USA) was treated thereon, and absorbance of the […] was measured at 450 nm.

TNF-α = assay: as above; settings: oral, 11 days (KC3 1×10^9 CFU/mouse; positive control 3 mg per kg BW per day)
Description: as §1, §3, §4, §5, §6, §7, §8

MIP2 = assay: as above; settings: oral, 11 days (KC3 1×10^9 CFU/mouse; positive control 3 mg per kg BW per day)
Description: as §1, §3, §4, §5, §6, §7, §8

IL-17A = assay: as above; settings: oral, 11 days (KC3 1×10^9 CFU/mouse; positive control 3 mg per kg BW per day)
Description: as §1, §3, §4, §5, §6, §7, §8

## C[C@@H]1C[C@H]2[C@@H]3CCC4=CC(=O)C=C[C@]4(C)[C@@]3(F)[C@@H](O)C[C@]2(C)[C@@]1(O)C(=O)CO [Positive control group, dexamethasone]
Neutrophils in BAL fluid
  Inhibition rate (based on induced group), neutrophils: 10%
Neutrophils in BAL fluid; Diff-Qick staining, induction group 119 ± 13
  Neutrophile No of BAL cel (400X): 108 ± 9
[1]
  Inhibition rate (based on induction group), total BAL cell: 11%
[1]; induction group 81.2 ± 19.8
  Total BAL cell: 72.6 ± 9.5 ×10^4 cells/ml
CXCL-1
  CXCL-1 inhibition rate (%) based on induced group: (46%)
CXCL-1; ELISA, induction group 327 ± 41
  CXCL-1 concentration in BAL fluid: 174 ± 15 pg/mL
TNF-α
  TNF-α inhibition rate (%) based on induced group: (66%)
TNF-α; ELISA, induction group 366 ± 45
  TNF-α concentration in BAL fluid: 121 ± 14 pg/mL
MIP2
  MIP2 inhibition rate (%) based on induced group: (19%)
MIP2; ELISA, induction group 68 ± 7
  MIP2 concentration in BAL fluid: 55 ± 9 pg/mL
IL-17A
  IL-17A inhibition rate (%) based on induced group: (47%)
IL-17A; ELISA, induction group 13.4 ± 1.5
  IL-17A concentration in BAL fluid: 7.0 ± 0.8 pg/mL

From US20230076310A1, “COMPOSITION USING NOVEL LACTOBACILLUS PLANTARUM KC3 STRAIN FOR PREVENTION OR TREATMENT OF IMMUNE IMPAIRMENT, RESPIRATORY INFLAMMATORY DISEASE, ALLERGY, AND ASTHMA AND USE THEREOF” (KT&G CORPORATION, priority 2020, published 2023)
